Measurements reported in patent US8685695B2, “Method for producing a mixture of bacteriophages and the use thereof in the therapy of antibiotic-resistant staphylococci” (priority 2008, dated 2014).
Where two headings read alike, the source gives them in different places.

Tests used:
[1] = system: S. aureus M.06.02.0071 (USA300, MRSA, ST8); format: in vivo, mouse; settings: for Percentage of surviving animals: antibiotics 2 × day
Method: A non-sensitive antibiotic (ciprofloxacin) and a sensitive antibiotic (vancomycin) were also used to allow a comparison to be made.
Four groups, each of 20 mice weighing approximately 25 g, were first subjected to immunosuppression to ensure that they would be adequately infected by S. aureus. The immunosuppression began with an application of cyclophosphamide 4 days before the bacterial infection. A further application of cyclophosphamide was carried out 1 day before, together with a once-only administration of cortisone. The immunosuppression with cyclophosphamide was repeated at intervals of 3 days.
The strain of S. aureus which was selected for the infection was resistant to this antibiotic.
The strain of S. aureus which was selected for the infection (internal designation M.06.02.0071) was an isolate which was supplied by the Robert-Koch-Institut of Wernigerode. This S. aureus is a member of the group of USA300 (MRSA, ST8) strains which are considered particularly virulent due to the presence of the virulence factor PVL.
On day 0, the mice had 1.5×10^7 CFU of the S. aureus applied to them intratrachially under anaesthetic.
The medicament, which was applied intratrachially under anaesthetic, was a one-off dose of 5.5×10^10 PFU of a 1:1 mixture of the bacteriophages DSM 18722 and DSM 18723 either one hour before the infection or one hour after the infection. One group, beginning 1 day before the infection, was also treated subcutaneously with vancomycin twice a day.
The main parameter was the determination of lethality as a function of the time elapsed since the start of the test. The length of the test was 14 days.

S. aureus M.06.02.0071 [2] = experiment: Sensitivity of the strain to bacteriophages and antibiotics; format: cell-based, Staphylococcus aureus
S. aureus DSM 18421 [3] = experiment: Nanocalorimetric measurement of metabolism; format: cell-based, Staphylococcus aureus; settings: antibiotics 10 μg/ml; bacteriophages 4×10^9 PFU/ml
Method: (§1) Another sensitive method of examining the activity of micro-organisms is available in the form of nanocalorimetry. In this technique, metabolic action is measured by way of the heat it produces. The production of heat is measured from the voltage (in [p\/]) generated at thermocouples.
(§2) A detailed description of the measuring system used and the procedure can be found in: J. Lerchner et al., Thermochimica Acta 477, 2008, 48-53.
(§3) The concentration of the bacteriophages was 4×10^9 PFU/ml.

S. aureus M.06.02.0071 [4] = experiment: Nanocalorimetric measurement of metabolism; format: cell-based, Staphylococcus aureus; settings: antibiotics 10 μg/ml; bacteriophages 4×10^9 PFU/ml
Method: as §1, §2, §3

[5] = system: S. aureus from tissue (M.06.02.0071, mouse pneumonia model); experiment: Nanocalorimetric measurement of metabolism, bacteria isolated from lung tissue; format: cell-based, Staphylococcus aureus; settings: antibiotics 10 μg/ml, bacteriophages 4×10^9 PFU/ml
Method: as §1, §2, §3

S. aureus DSM 18421 [6] = experiment: Sensitivity of the strain to bacteriophages and antibiotics; format: cell-based, Staphylococcus aureus
[7] = system: Staphylococcus aureus DSM 18421; experiment: Lysis of Staphylococcus aureus DSM 18421 in saliva (viable cell count); format: cell-based
Method: • Morning saliva (before breakfast and before cleaning of teeth) was collected from different individual persons. • The saliva samples were centrifuged for 5 min at room temperature at 12,000 rpm. • The supernatant liquid was removed and sterile filtered (0.8 μm pre-filter, then a 0.22 μm filter). • The samples of saliva were mixed 1:1 in a sterile vessel. 7.2 Incubation of the Preparations for Lysis • To the saliva prepared as described above were also added: • approx. 1×10^4 CFU/ml of DSM 18421 (from a suitable dilution of the overnight culture), • approx. 1×10^8 PFU/ml of phages (Simba Top, 1:1 mixture of purified M and K phages). • Used in addition were serralysin (100 U/ml), dornase (25 μml) or benzonase (25 μml) or a combination of these enzymes. • The enzymes were added right at the start of the incubation. • A control incubation was carried out at the same time in which the phages were replaced by adding the same volume of storage buffers (for composition see below). • The total volume of all the preparations was 2 ml. • The incubation was carried out in 10 ml glass penicillin bottles at 37° C. and 200 rpm (in a shaker incubator) 7.3 Determination of the Viable Cell Count (CFU/ml) After 6 h • After an incubation period of 6 h, an aliquot was taken from each preparation and a factor-of-ten dilution series prepared from it. • 2-5 suitable dilutions were selected from each dilution series and 2×100 μl (twin samples) of each were plated (with a Drigalski spatula). • The plating was performed onto LB agar in the case of the phage-free preparations and onto LB agar containing 0.01% citrate in the case of the preparations containing phages. • After at least 16 h of incubation at 37° C., the colony forming units (CFU's) were counted on each plate • Only plates which had at least 20 CFU's were used to calculate the FIGURE for CFU/ml • A representation in graph form was prepared by plotting CFU/ml (in logarithmic form) against the period of incubation.
Period of incubation: 6 hours Medium: saliva (human; mixture)

[8] = Table 10, 6 h, 37° C., phages approx. 1×10^8 PFU/ml, serralysin 100 U/ml

## O=C(O)c1cn(C2CC2)c2cc(N3CCNCC3)c(F)cc2c1=O [Ciprofloxacin, ciprofloxacin]
[1]; 0 hours after infection
  Percentage of surviving animals: 100%
[1]; 5 hours after infection
  Percentage of surviving animals: 100%
[1]; 19 hours after infection
  Percentage of surviving animals: 60%
[1]; 23 hours after infection
  Percentage of surviving animals: 45%
[1]; 29 hours after infection
  Percentage of surviving animals: 35%
[1]; 43 hours after infection
  Percentage of surviving animals: 10%
[1]; 47 hours after infection
  Percentage of surviving animals: 10%
S. aureus M.06.02.0071 [2]
  Sensitivity of the strain, in words: resistant

## CN[C@H](CC(C)C)C(=O)N[C@H]1C(=O)N[C@@H](CC(N)=O)C(=O)N[C@H]2C(=O)N[C@H]3C(=O)N[C@H](C(=O)N[C@H](C(=O)O)c4cc(O)cc(O)c4-c4cc3ccc4O)[C@H](O)c3ccc(c(Cl)c3)Oc3cc2cc(c3O[C@@H]2O[C@H](CO)[C@@H](O)[C@H](O)[C@H]2O[C@H]2C[C@](C)(N)[C@H](O)[C@H](C)O2)Oc2ccc(cc2Cl)[C@H]1O [Vancomycin, vancomycin]
[1]; bacteriophages one-off before the infection, vancomycin prior and thereafter continuous, compared with the placebo
  Mortality in the acute phase, in words: reduction in mortality
S. aureus DSM 18421 [3]
  % relative to control: 36%
  Difference voltage: −3.681 μV
S. aureus M.06.02.0071 [4]
  % relative to control: 41%
  Difference voltage: −4.132 μV
[5]
  % relative to control: 61%
  Difference voltage: −0.438 μV
S. aureus DSM 18421 [6]
  Sensitivity of the strain, in words: sensitive
S. aureus M.06.02.0071 [2]
  Sensitivity of the strain, in words: sensitive

## serralysin
[7]; 6 h
  Effect on the colony count of S. aureus in saliva, in words: did not cause a reduction in the colony count
[7]; [8]
  Colony count, % of control without phages: 130%
  Viable cell count: 1.14 × 10^6 CFU/ml
